Values of other authors, collected in EP3569066A1, “ECOLOGICAL FORMULA HAVING MULTIPLE ANTIMICROBIAL ACTION (BACTERICIDAL, FUNGICIDAL AND ANTI-VIRAL) BASED ON COMMERCIAL MOLECULES” (Arias Dipre, Juan José, priority 2017, dated 2018).
Like-named read-outs stand apart in the source and are kept apart here.

Conditions: 0.1N solution

O=C(O)CC(O)(CC(=O)O)C(=O)O [Ingredient 1, 2-HYDROXY-1, 2, 3 TRI[…]]
pH: 2.2 | pH (listed as E): 2.2 (0.1 N)
